In PMC6510909 (Investigational New Drugs, 2018):

System: patients with previously untreated metastatic PDAC
Experiment: Phase 1 efficacy: best overall response (RECIST v1.1), OS, PFS, duration of response
Format: in vivo, human
Method: All patients provided written informed consent prior to enrollment.
Staging CT or MRI scans were performed at baseline and approximately every 8 weeks following Cycle 1 Day 1. Imaging modalities were maintained over the course of the study. Treatment was to continue in the absence of disease progression, unacceptable toxicity, consent withdrawal, or refusal of treatment. After discontinuation of treatment, patients were followed for safety for 30 days.
The efficacy analyses were conducted in all enrolled patients.

[1] = 100 mg MMB QD n = 7, + nab-P + G
[2] = 150 mg MMB BID n = 3, + nab-P + G
[3] = 150 mg MMB QD n = 4, + nab-P + G
[4] = 200 mg MMB BID n = 4, + nab-P + G
[5] = 200 mg MMB QD n = 7, + nab-P + G
[6] = all cohorts, MMB + nab-P + G, n = 25
[7] = overall study population, MMB + nab-P + G

In the case of `N#CCNC(=O)c1ccc(-c2ccnc(Nc3ccc(N4CCOCC4)cc3)n2)cc1` [MMB, momelotinib], the “Best overall response: CR” value [1] is reported as 0 n, (%), the “Best overall response: Not evaluable” value [1] is reported as 2 (28.6) n, (%) and the “Best overall response: ORR (CR + PR)” value [1] is reported as 2 (28.6) n, (%). For the same molecule, the “Best overall response: PD” value [1] was 1 (14.3) n, (%), the “Best overall response: PR” value [1] was 2 (28.6) n, (%) and the “Best overall response: SD” value [1] was 2 (28.6) n, (%). The “Best overall response: CR” value [2] was 0 n, (%), the “Best overall response: Not evaluable” value [2] was 1 (33.3) n, (%) and the “Best overall response: ORR (CR + PR)” value [2] was 1 (33.3) n, (%). For the same molecule, the “Best overall response: PD” value [2] was 0 n, (%), the “Best overall response: PR” value [2] was 1 (33.3) n, (%) and the “Best overall response: SD” value [2] was 1 (33.3) n, (%). For the same molecule, the “Best overall response: CR” value [3] was 0 n, (%), the “Best overall response: Not evaluable” value [3] was 0 n, (%) and the “Best overall response: ORR (CR + PR)” value [3] was 1 (25.0) n, (%). The “Best overall response: PD” value [3] was 1 (25.0) n, (%), the “Best overall response: PR” value [3] was 1 (25.0) n, (%) and the “Best overall response: SD” value [3] was 2 (50.0) n, (%). For the same molecule, the “Best overall response: CR” value [4] was 0 n, (%), the “Best overall response: Not evaluable” value [4] was 0 n, (%) and the “Best overall response: ORR (CR + PR)” value [4] was 0 n, (%). For the same molecule, the “Best overall response: PD” value [4] was 0 n, (%), the “Best overall response: PR” value [4] was 0 n, (%) and the “Best overall response: SD” value [4] was 4 (100.0) n, (%). For the same molecule, the “Best overall response: CR” value [5] was 0 n, (%), the “Best overall response: Not evaluable” value [5] was 0 n, (%) and the “Best overall response: ORR (CR + PR)” value [5] was 3 (42.9) n, (%). The “Best overall response: PD” value [5] was 0 n, (%), the “Best overall response: PR” value [5] was 3 (42.9) n, (%) and the “Best overall response: SD” value [5] was 4 (57.1) n, (%). The “Complete responses (CRs) across the dose cohorts” value [6] was “no CRs”, the “Partial responses (PRs) across the dose cohorts” value [6] was 7 and the “Stable disease as the best response, patients” value [6] was 52%. The “Objective response rate (ORR), overall study population” value (all cohorts, MMB + nab-P + G, n = 25, 95% CI 12.1%–49.4%) was 28%, the “Median (95% CI) OS” value [7] was 8.7 (6.7, 18.8) months and the “Median (95% CI) PFS” value [7] was 5.7 (5.3, 7.2) months. The “Median (95% CI) duration of response” value (the 7 patients with a PR) was 4.0 (0.5, not reached) months.
